The values below are quoted from earlier work in the CATMoS acute toxicity set (Mansouri et al. 2021).

SMILES strings stand for the structures.

A short description of this data set: rat acute oral toxicity. The following applies: in vivo. The text has this: […]The data set underlying the modeling effort for this project was initially compiled by NICEATM and U.S. EPA’s CCTE. Briefly, LD50 data were collected from rat acute oral systemic toxicity tests, including limit tests, ranges/confidence intervals, and discrete LD50 values. The full data set included 21,200 LD50 entries for 15,688 substances. […] Data were reviewed to ensure that LD50 values with obvious errors in the extracted data such as unit conversion errors (e.g., comma and decimal separator misplacements) were either fixed or removed. After this review, 16,209 LD50 values remained. Many of the chemicals represented had multiple LD50 entries, requiring that a single representative value per Chemical Abstracts Service Registry Number (CASRN) identifier be defined to facilitate modeling efforts. Based on ATWG feedback and to define the representative LD50 as a protective value while accounting for the distribution across multiple LD50s, the median of the lowest quartile was computed using only discrete LD50 values (omitting limit test data and range and confidence interval data). A detailed summary of the data compilation is available online on the NICEATM webpage dedicated to the collaborative modeling project (NTP 2020).
[…][…] For categorical designations, limit test and range/confidence interval LD50 data were integrated wherever possible. As such, the number of chemicals with end point values/calls varies across the modeling end points (Table 3) based on whether chemicals had representative LD50 values and/or other data. If a chemical had both, the representative value was used to determine categorical calls rather than limit test data. Some data were useable only for certain end points and categories depending on the thresholds. For example, ranges that spanned multiple hazard categories were considered only for the binary (very toxic/nontoxic) end points and omitted from rendering a determination for hazard category assignment.
[…]The final data set comprising 11,992 chemicals was split into training and evaluation sets […], respectively. This process was performed semirandomly by ordering chemicals based on the five end points (categorical and continuous LD50 values) and partitioning every fourth record into the evaluation set accordingly. This approach was taken to ensure an equivalent distribution of the LD50 values and the different hazard categories between the training and the evaluation sets without supervised sampling of the chemicals based on structures (Figure 1A). The sources of the chemical structures were also kept equivalent between the two sets, with chemical structures obtained from DSSTox, being the highest quality, representing over 75% of each set (Figure 1B).
Consider `OC[C@@H](O)[C@@H](O)[C@H](O)[C@@H](O)CO`, for which the LD50 is 15900 mg/kg.

With `N#Cc1cc(Cl)cc2[nH]c(C(F)(F)F)nc12`, the LD50 is 4.79 mg/kg.

For `O=C1C(Cl)C2(Cl)C3C(Cl)OC(Cl)C3C1(Cl)C2(Cl)Cl` (centres undefined), the LD50 was 7 mg/kg.

Turning to `CCC1(C)Oc2cccc(OC(=O)NC)c2O1` (centres undefined), the LD50 is 25 mg/kg.

For the compound `ClC1=C(Cl)[C@]2(Cl)[C@@H]3C[C@@H](Cl)[C@@H](Cl)[C@@H]3[C@@]1(Cl)C2(Cl)Cl` (racemic), the LD50 was 500 mg/kg.

With `CNCCc1ccc(OC(=O)C(C)C)c(OC(=O)C(C)C)c1`, the LD50 is 2930 mg/kg.

For `Cc1cc(C(=O)NNC(C)Cc2ccccc2)no1` (centres undefined), the LD50 is 89 mg/kg.

With `CCOC(=O)CCCCCCCCC(=O)OCC`, the LD50 was 14500 mg/kg.

As to `C1CCC2OCCOCCOCCOC3CCCCC3OCCOCCOCCOC2C1` (centres undefined), the LD50 is 75 mg/kg.

With `CC(C)(C)C(=O)C(Oc1ccc(Cl)cc1)n1ccnc1` (centres undefined), the LD50 was 400 mg/kg.

Take `c1nc(NC2CC2)c2ncn(C3CC3)c2n1`: the LD50 was 130 mg/kg.

Turning to `CNC(=O)ON=C1SCSC1C` (centres undefined), the LD50 is 0.88 mg/kg.

For `FC(F)(F)c1ccccc1Br`, the LD50 is 2720 mg/kg.

In the case of `COP(=O)(OC)Oc1nc(Cl)c(Cl)cc1Cl`, the LD50 is 869 mg/kg.

Regarding `CC(C)=CCCC(C)CC(=O)O` (centres undefined), the LD50 is 2610 mg/kg.

`C1CSCCS1`: the LD50 was 2770 mg/kg.

Turning to `N#CC(F)(F)C(F)(F)C(F)(F)C(F)(F)C#N`, the LD50 is 2920 mg/kg.

Turning to `CC1CCCc2ccccc21` (centres undefined), the LD50 is 6700 mg/kg.

In the case of `COP(=S)(OC(C)C)SCN1C(=O)c2ccccc2C1=O` (centres undefined), the LD50 was 50 mg/kg.

On to `c1ccc(-n2cnnc2)cc1`, for which the LD50 is 134 mg/kg.

With `Cc1c(Cl)cc(-c2ccc(O)nn2)cc1Cl`, the LD50 was 12000 mg/kg.

Take `OC(CCl)CCl`: the LD50 is 110 mg/kg.

For `CNC(=O)ON=C(CSC)C(C)(C)C`, the LD50 is 8.5 mg/kg.

As for `O=C(O)CCCC(=O)O`, the LD50 was 6000 mg/kg.

On to `C=CCNC(=S)Nc1ccccc1`, for which the LD50 is 750 mg/kg.

With `CN1CCN(C(=O)Cn2c(=O)sc3ccc(Cl)cc32)CC1`, the LD50 was 640 mg/kg.

For `CCCCc1c(C)nc(NCC)nc1OS(=O)(=O)N(C)C`, the LD50 was 4000 mg/kg.

Consider `O=C(OCCN1CCOCC1)c1cccnc1Nc1cccc(C(F)(F)F)c1`, for which the LD50 was 4300 mg/kg.

As to `CCN(CC)CC(=O)c1c2c(cc3c1CCC3)CCC2`, the LD50 was 2220 mg/kg.

On to `COC(C)=O`, for which the LD50 was 6480 mg/kg.

As to `FC(Cl)(C(Cl)(Cl)Cl)C(Cl)(Cl)Cl`, the LD50 is 500 mg/kg.

As to `COc1cc(C(=O)OCCCCN2CCN(c3ccccc3)CC2)cc(OC)c1OC`, the LD50 is 2500 mg/kg.

For `ClCC[N+]1(CCCCCC[N+]2(CCCl)CCCO2)CCCO1` (centres undefined), the LD50 is 30 mg/kg.

Consider `O=C1OCc2c(Cl)c(Cl)c(Cl)c(Cl)c21`, for which the LD50 is 20000 mg/kg.

As to `O=[n+]1c2c(n([O-])c3ccccc31)CCCC2`, the LD50 is 1360 mg/kg.

As to `O=CCC=O`, the LD50 was 632 mg/kg.

As to `CC1=C[C@H]2O[C@@H]3[C@H](O)[C@@H](O)[C@](C)([C@@]2(CO)[C@H](O)C1=O)[C@]31CO1`, the LD50 is 19.5 mg/kg.

For `O=[N+]([O-])c1cc([N+](=O)[O-])c(Nc2cc(C(F)(F)F)ccc2Cl)c(C(F)(F)F)c1`, the LD50 is 94 mg/kg.

With `CNC(=O)Nc1ccccc1`, the LD50 was 3440 mg/kg.

`CCOC(=O)CCC(=O)OCC`: the LD50 is 8530 mg/kg.

`S=c1[nH]n(-c2ccccc2)c(=S)s1`: the LD50 is 763 mg/kg.

For the compound `c1ccc(C2(N3CCCCC3)CCCCC2)cc1`, the LD50 was 135 mg/kg.

As to `Nc1ccc2c3c([nH]c2c1)CCCC3`, the LD50 is 290 mg/kg.

As for `NNC(=O)[C@@H](N)CS`, the LD50 was 1050 mg/kg.

For the compound `CCCCCNCCCCC`, the LD50 was 270 mg/kg.

With `CCOP(=O)(OCC)SC`, the LD50 was 47.1 mg/kg.

For the compound `NC(N)=NCC=Cc1ccccc1`, the LD50 is 456 mg/kg.

In the case of `Cc1c[nH]cn1`, the LD50 was 751 mg/kg.

As for `CS(=O)(=O)c1ccc(Cl)cc1`, the LD50 is 400 mg/kg.

In the case of `Cc1cc(S(=O)(=O)c2ccccc2)ccc1NS(=O)(=O)C(F)(F)F`, the LD50 is 633 mg/kg.

With `CN1C(C(=O)Nc2ccccn2)C(=O)c2sc(Cl)cc2S1(=O)=O` (centres undefined), the LD50 is 5.73 mg/kg.

Consider `O=C1CCc2cc(C(=O)CCN3CCN(c4ccccc4)CC3)ccc2N1`, for which the LD50 is 500 mg/kg.

As for `Cc1cc(=NC(=O)c2ccccc2O)n(-c2ccccc2)n1C`, the LD50 is 1270 mg/kg.

As for `CC(C)C(=O)OCC(C)(C)C(O)C(C)C` (centres undefined), the LD50 was 3200 mg/kg.
